According to patent publication EP0144845A1, “Indolylacetic acid derivatives and preparations containing same for medical treatments” (GREEN CROSS CORPORATION, priority 1983, dated 1985):

What was measured:
[1] = system: carrageenan- induced edema in rats; test: Anti-inflammatory action: carrageenan-induced leg edema in rats; assay type: in vivo, Wister male rats; conditions: 0.3 mg/kg by the tail venous route 1 hour after carrageenan, fat emulsions, leg volume vs physiological saline groups 3 hours after carrageenan
Description: Wister male rats were divided into groups of 6 rats each. 0.1 mℓ of a 1% solution of carrageenan in physiological saline was injected subcutaneously in the heel of a right hind leg for each rat to develop a leg edema. One hour after the injection of carrageenan, a drug to be tested was injected in a dosage of 0.3 mg/kg by the tail venous route. Thereafter the leg volume was measured with suitable time intervals.
The fat emulsions prepared in Preparation Examples 1 to 4 were tested. As a control drug, physiological saline was used.
The degree of the anti-inflammatory action was indicated as an inhibitory ratio in connection with the leg volume of physiological saline-administered groups 3 hours after the injection of carrageenan.

[2] = Solubility in soybean oil (crystal precipitation on standing); assay type: physicochemical; conditions: 200 mg dissolved in 1 mL soybean oil at 70°C, then standing at 25°C for 2 days and nights
Description: In order to examine the solubility of the above-obtained substance in soybean oil, 200 mg of the substance was dissolved in 1 m£ of soybean oil while heating at 70°C and, thereafter, the resulting solution was allowed to stand at 25°C for 2 days and nights.

CCCCOC(=O)COC(=O)Cc1c(C)n(C(=O)c2ccc(Cl)cc2)c2ccc(OC)cc12 [Example 1, butoxycarbonylmethyl indomethacin ester]
Anti-inflammatory Action Edema Inhibition Ratio (%) [1]: 60%

CCCCCCOC(=O)COC(=O)Cc1c(C)n(C(=O)c2ccc(Cl)cc2)c2ccc(OC)cc12 [Example 2, Hexyloxycarbonylmethyl indomethacin ester]
Anti-inflammatory Action Edema Inhibition Ratio (%) [1]: 62%

CCCCOC(=O)COC(=O)Cc1c(C)n(C(=O)c2ccc(F)cc2)c2ccc(OC)cc12 [Example 4, butoxycarbonylmethyl 1-(p-fluorobenzoyl)-5-methoxy-2-methylindole-3-acetate]
solubility in soybean oil: precipitation of crystals [2]: Precipitation of crystals was not observed at all | Anti-inflammatory Action Edema Inhibition Ratio (%) [1]: 68%

COc1ccc2c(c1)c(CC(=O)OCOC(=O)C(C)(C)C)c(C)n2C(=O)c1ccc(Cl)cc1 [Example 3, Pivaloyloxymethyl indomethacin ester]
Anti-inflammatory Action Edema Inhibition Ratio (%) [1]: 58%
